The values below come from PubChem BioAssay AID720695 (Broad Institute, 2013).

Molecules are shown by their SMILES. The source made the active and inactive calls.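 Rule for the calls: active = compounds lowering Shn3 signal with a fitted half-maximal concentration at most twice the top tested dose; inconclusive = flat curve with 30 to 70% loss, or poor fit; inactive = the rest.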

This assay concerns the target Schnurri-3 (HIVEP3) mRNA. The experiment in a line: endogenous Schnurri-3 transcript knock-down – Clone20 cells, qPCR, dry powder, orthogonal assay for Schnurri-3 inhibitor project, dose response (AID 720695). The settings on record: overnight; for Shn3 expression, relative signal: at 35 µM (top of the series); for AC50: Shn3 mRNA qPCR.

For the compound `Cc1cc(N2CCCC2=O)cc(C)c1S(=O)(=O)NCCOc1ccc(C(C)(C)C)cc1`, the “Shn3 expression, relative signal” value is “inactive”.

Regarding `COc1ccc(NS(=O)(=O)c2ccc(C(=O)N3CCCCCC3)cc2)cc1`, the “Shn3 expression, relative signal” value was “inactive”.

Consider `CC(=O)N1CCN(C(=O)CCc2cc(C(C)(C)C)c(O)c(C(C)(C)C)c2)CC1`, for which the “Shn3 expression, relative signal” value is “inactive”.

As for `Fc1ccc(-n2nnnc2-c2cnc(-c3cccs3)nc2C(F)(F)F)cc1`, the “Shn3 expression, relative signal” value is “inactive”.

`COc1cc(CN2CCc3ccccc3C2)ccc1O`: the half-maximal activity concentration (AC50) is 6.67 µM.

With `CCCOc1ccccc1C1CC(=O)Nc2cc3c(cc21)OCO3` (stereo not drawn), the “Shn3 expression, relative signal” value is “inactive”.

With `CN(C)c1nc(-c2ccccn2)nnc1-c1ccccc1`, the “Shn3 expression, relative signal” value is “inactive”.

`O=C(c1nnsc1S(=O)c1ccc(Cl)cc1)N1CCOCC1` (stereo not drawn): the AC50 was 13.7 µM.

Consider `COc1ccc(NC(=O)c2nc(S(=O)(=O)Cc3cccc(C)c3)ncc2Cl)c(OC)c1`, for which the AC50 was 8.91 µM.

Turning to `O=c1c2ccccc2nc2n1C(CSCc1ccc(Cl)cc1Cl)CS2` (stereo not drawn), the “Shn3 expression, relative signal” value was “inactive”.

As for `Nc1nonc1C(=O)NCCNCc1cc(Br)ccc1OCc1ccc(F)cc1`, the “Shn3 expression, relative signal” value was “inactive”.

As for `Cc1cc2c(cc(C(=O)N3CCC(C(=O)NC4CCCC4)CC3)n2Cc2c(F)cccc2Cl)o1`, the “Shn3 expression, relative signal” value was “inactive”.

As to `COc1cc2ncnc(N[C@H](C)c3ccccc3)c2cc1OC`, the “Shn3 expression, relative signal” value was “inactive”.

Regarding `CCOC(=O)C1CCN(C(=O)c2ccc(OCC(=O)Nc3cccc(C(F)(F)F)c3)c(OC)c2)CC1`, the “Shn3 expression, relative signal” value was “inactive”.

With `CN(C(=O)COc1ccccc1C(=O)NCCOc1ccccc1)c1ccccc1`, the concentration at half-maximal activity (AC50) is 26.6 µM.

With `Cc1ccc2cc(CN(CC3CCCO3)C(=O)NC3CCCCC3)c(=O)[nH]c2c1C` (stereo not drawn), the “Shn3 expression, relative signal” value was “inactive”.

Turning to `COc1ccc2c(c1)c(CC(=O)Nc1cc(C)ccc1C)c(C)n2C(=O)c1ccc(Cl)cc1`, the “Shn3 expression, relative signal” value is “inactive”.

Regarding `CC(C)(C)NC(=O)CSc1nc2ccc(NC(=O)CSc3nnnn3Cc3ccccc3)cc2s1`, the “Shn3 expression, relative signal” value was “inactive”.

For `CC(=O)Nc1cccc(NC(=O)CSc2ncc(-c3ccc(Cl)cc3)n2Cc2ccco2)c1`, the “Shn3 expression, relative signal” value was “inactive”.

As to `CC(C)[C@H](NC(=O)OC(C)(C)C)c1nnc(S(=O)(=O)Cc2c(F)cccc2Cl)o1`, the AC50 is 22.3 µM.

Regarding `CN(CC(=O)Nc1cccc(S(=O)(=O)N2CCOCC2)c1)CC(=O)Nc1ccc(Cl)c(C(F)(F)F)c1`, the “Shn3 expression, relative signal” value is “inactive”.

With `COc1ccc(Nc2nc(N3CCCCC3)c3ccccc3n2)cc1`, the “Shn3 expression, relative signal” value was “inactive”.

For the compound `O=C1CSc2ccc(C(=O)Nc3cccc(S(=O)(=O)Nc4ccc(Br)cc4)c3)cc2N1`, the “Shn3 expression, relative signal” value was “inactive”.

For the compound `CCOC(=O)C1(Cc2ccc(Cl)cc2)CCN(C(C)Cc2ccc(O)c(OC)c2)CC1` (stereo not drawn), the “Shn3 expression, relative signal” value was “inactive”.

As to `CCOC(=O)c1ccc(NC(=O)Cn2ncc(Cl)c(Cl)c2=O)cc1`, the AC50 was 11.6 µM.

With `CN(C)S(=O)(=O)c1cccc(NC(=O)c2cccc(S(=O)(=O)N3CCc4ccccc43)c2)c1`, the “Shn3 expression, relative signal” value was “inactive”.

Consider `COc1ccccc1N1CCN(c2ncc(C(=O)N3CCN(c4cccc(Cl)c4)CC3)c3ccccc23)CC1`, for which the “Shn3 expression, relative signal” value is “inactive”.

For `CCCc1nnc(NC(=O)c2nc(S(=O)(=O)Cc3ccc(C)cc3)ncc2Cl)s1`, the concentration at half-maximal activity (AC50) was 28 µM.
